What all share (assay type): cell-based, mouse
The subject of series [1] is caspase 3. The experiment in a line: Western blot of cleaved caspase 3 in treated primary cortical neurons. The protocol: (§1) Treatment of neuronal cultures. Wild-type (from CD1 mice), Tau−/−, Tau+/−, and Tau+/+ cortical neurons were cultured in standard NB/B27 serum-free medium, and, at 14 DIV, the medium was replaced with diluted 1:3 CM from TgCM, corresponding to 4 nM of Aβ, or WtCM (0.16 nM of murine Aβ40) and further incubated for 24 hrs. To induce apoptosis, cultures were treated with staurosporine (Enzo Life Sciences) at a final concentration of 1 μM and were harvested 4 hours after treatment. In zVAD-FMK (Sigma Aldrich) experiments, 20 μM of the inhibitor was applied to cultures 20 minutes prior to exposure to WtCM, TgCM, or STS. To inhibit calcineurin, 1 μM FK506 (Enzo Life Sciences) was applied 20 minutes prior to exposure to WtCM, TgCM or STS. Media was then aspirated and RIPA buffer with phosphatase and protease inhibitors was added to each well. Cells were scraped to prepare lysates for Western blots.
Western Blot. Protein lysates were boiled in sample buffer consisting of LDS Sample Buffer and reducing Agent, resolved on 4%-12% Bis-Tris polyacrylamide precast gels in a MES-SDS running buffer containing antioxidant. For most analyses, 20 μg/lane were loaded. Gels were transferred onto nitrocellulose membranes (Whatman) in transfer buffer containing 20% methanol. Blots were blocked in Odyssey blocking buffer (Li-Cor biosciences), followed by incubation with primary antibodies: mouse β-actin (Sigma; 1:10,000); rabbit cleaved caspase 3 (Cell Signaling; 1:1,000); rabbit caspase 3 (Cell Signaling; 1:1,000); mouse TauC3 (courtesy of Dr Lester Binder, 1:300); rabbit polyclonal Total Tau (Dako; 1:10,000), rabbit PSD95 (1:1,000; Cell Signaling), rabbit cleaved caspase 9 (1:1,000; Cell Signaling), mouse caspase 9 (1:1,000; Cell Signaling), rabbit pBAD (1:1,000; Cell Signaling), rabbit BAD (1:1,000; Cell Signaling), VDAC (1:1,000; Cell Signaling), mouse cytochrome c (1:1,000; BD Pharmingen), mouse BAX (1:1,000; Santa Cruz), rabbit cleaved PARP (1:1,000; Cell Signaling), rabbit PARP (1:1,000; Cell Signaling). […]
A general note: A western blot detects proteins with antibodies after separation by electrophoresis.

For series [2], the system named is poly (ADP-ribose) polymerase (PARP). Kind of series: Western blot of cleaved PARP. The note with it: TgCM 24 hrs; STS 6 hours. The protocol:
as §1, with “To induce apoptosis, cultures were treated with staurosporine (Enzo Life Sciences) at a final concentration of 1 μM and were harvested 4 hours after treatment.” left out
(§2) Western Blot. Protein lysates were boiled in sample buffer consisting of LDS Sample Buffer and reducing Agent, resolved on 4%-12% Bis-Tris polyacrylamide precast gels in a MES-SDS running buffer containing antioxidant. For most analyses, 20 μg/lane were loaded. Gels were transferred onto nitrocellulose membranes (Whatman) in transfer buffer containing 20% methanol. […]

The subject of series [3] is primary neuronal cultures. Kind of series: ToxiLight BioAssay for cell death. On the procedure:
ToxiLight BioAssay. Toxicity assays were conducted in medium collected from wild-type, Tau+/− and Tau−/− neurons plated in 96 well plates at 15 DIV using the ToxiLight BioAssay kit (Lonza, Rockland, Me.). Preparation of cell extracts and the cytotoxicity assay were performed according to manufacturer protocols. After centrifugation, 50 μl samples per well were transferred on an opaque white microtitre plate. To each well, 100 μl of the adenylate kinase detection reagent was added and the plate was incubated for 5 min at room temperature. After 5 min, luminescence was measured in the Wallac plate reader. Results are expressed as arbitrary relative light units (AU). To achieve 100% cell lysis (positive control) neurons were treated with 10% triton-X-100. […] Neurons for Toxilight assays were plated in 96 well plates using 3 wells per condition in duplicate across four separate culture experiments.

Series [4] deals with tau cleaved at Asp421 (TauC3). The experiment in a line: Western blot of tau cleaved at Asp421 in treated primary cortical neurons. On the procedure:
as §1, §2

Series [5] relates to caspase 9. The experiment in a line: Western blot of cleaved caspase 9 in treated primary cortical neurons. The conditions noted are these: TgCM treated cultures, inhibitor or Aβ immunodepletion. On the procedure: as §1, §2
Series [6] deals with BAD. Kind of series: Western blot of phosphorylated BAD in treated primary cortical neurons. The note with it: TgCM treated cultures, inhibitor or Aβ immunodepletion. On the procedure: as §1, §2
For series [7], the system named is cytochrome c. Kind of series: Western blot of cytochrome c in cytosolic fraction and mitochondrial pellet. The note with it: TgCM treated cultures plus inhibitor. On the procedure:
as §1
Mitochondria Isolations. Mitochondria were isolated from neurons plated in 10 cm dishes treated with WtCM and TgCM and purified by centrifugation as previously described (Ofengeim et al., 2012). […] The protein concentration was determined by BCA assay (Thermo Scientific) in all fractions and this concentration used for loading gels for western blot analysis. […]

For series [8], the system named is GFP transfected neurons. Kind of series: Spine density of GFP transfected neurons. On the procedure: Analysis of spine density and spine morphology. Cultured neurons plated in 35 mm glass-bottomed dishes (MatTek) were transfected with green fluorescent protein (GFP) (Clontech) at 7 DIV and imaged at 15 DIV. High-resolution digital images were taken using a Zeiss LSM510 confocal microscope with a 25× water-immersion objective lens (digital zoom=3-5), and excitation laser at 488 nm. Images were analyzed with NeuronStudio software (CNIC, Mount Sinai School of Medicine). Spine density was defined as the number of spines per micrometer of dendrite length according previously published protocols (Wu et al., 2010) with modifications. Dendritic spine densities were calculated from 30 to 40 neurons per condition across four separate culture experiments. For each condition, measurements of spine densities were averaged per neuron; the means from multiple neurons were then averaged to obtain the mean±s.e.m. for the population of neurons.

Series [9] concerns PSD95. The experiment in a line: Western blot of PSD95. The conditions noted are these: co-treated with inhibitor. On the procedure: as §1, §2
Setting [10] is: STS 1 μM plus caspase inhibition.
Setting [11] is: TgCM (4 nM Aβ) 24 hrs, inhibitor applied 20 minutes prior.

Where a SMILES comes first, the peptide text is derived from it. The star is where a group is joined. Cbz = O=C(OCc1ccccc1)*; CH2F = FC*

Turning to `C=CC[C@@H]1/C=C(\C)C[C@H](C)C[C@H](OC)[C@H]2O[C@@](O)(C(=O)C(=O)N3CCCC[C@H]3C(=O)O[C@H](/C(C)=C/[C@@H]3CC[C@@H](O)[C@H](OC)C3)[C@H](C)[C@@H](O)CC1=O)[C@H](C)C[C@@H]2OC` [FK506], the “caspase 3 activation, tau cleavage, caspase 9 activation and BAD dephosphorylation in WtCM treated cultures” value in [1] (WtCM plus inhibitor) was “no effect”.

For `CN[C@@H]1C[C@H]2O[C@@](C)([C@@H]1OC)n1c3ccccc3c3c4c(c5c6ccccc6n2c5c31)C(=O)NC4` [STS, staurosporine], in series [2], the “cleaved PARP” value is recorded as “induced PARP cleavage”. Besides, the “cell death (release of adenylate kinase)” value in series [3] (compared to control) is “cell death was induced”.

Take `COC(=O)C[C@H](NC(=O)[C@H](C)NC(=O)[C@@H](NC(=O)OCc1ccccc1)C(C)C)C(=O)CF` [zVAD-FMK] (Cbz-Val-Ala-Asp(OMe)-CH2F): the “caspase 3 activation in STS treated cells” value in [1] (setting [10]) was “reduced activation of caspase 3”. Moreover, the “caspase 3 activation in TgCM exposed neurons” value in series [1] (setting [11]) is “no increase”. Moreover, in series [4] (setting [10]), the “tau cleavage in STS treated cells” value was “reduced tau cleavage”. Further, the “TauC3 levels / tau cleavage in TgCM exposed neurons” value in series [4] (setting [11]) was “no increase”. In addition, the “Aβ-induced caspase 9 activation” value in series [5] is reported as “blocked”. Also, the “TgCM-induced dephosphorylation of BAD” value in series [6] is recorded as “did not prevent dephosphorylation of BAD”. The “levels of cytochrome c in the cytosol or mitochondrial pellet” value in series [7] is “did not alter levels of cytochrome c”. Moreover, the STS-induced cell death entry in [3] (STS plus inhibitor) is “blocked”. In series [8] (TgCM treated neurons plus inhibitor), the “spine loss triggered by TgCM” value is listed as “fully blocked the spine loss”. Also, the “spine density in WtCM exposed neurons” value in series [8] (WtCM plus inhibitor) is listed as “significant increase in spine density”. Moreover, in series [9], the “PSD95 levels in neurons exposed to TgCM” value is recorded as “preserved”.

(Values after US20160333063A1, “SOLUBLE HIGH MOLECULAR WEIGHT (HMW) TAU SPECIES AND APPLICATIONS THEREOF” (THE GENERAL HOSPITAL CORPORATION, priority 2013, published 2016).)
